PubChem BioAssay (NCI)
Values joined by “and” are separate entries in the source; they are usually repeats but may differ in a detail not shown here. Equal entries are not always repeated.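 Dose response: 5 concentrations. Exposure: 48 h. Format: 96-well plates. Endpoint: linear interpolation; highest concentration if not reached. GI50: concentration for 50% inhibition of growth. Definition used: TGI = concentration required for complete inhibition of growth.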

Legend:
Test in all cases: NCI anticancer screen, dose series, 48 h
SF-295 CNS = test system: SF-295 CNS
RPMI-8226 leukemia = test system: RPMI-8226 leukemia
A498 renal = test system: A498 renal
UO-31 renal = test system: UO-31 renal
OVCAR-3 ovarian = test system: OVCAR-3 ovarian
HOP-92 NSCLC = test system: HOP-92 NSCLC
UACC-62 melanoma = test system: UACC-62 melanoma
SNB-19 CNS = test system: SNB-19 CNS
MDA-MB-231 breast = test system: MDA-MB-231 breast
HCT-15 colon = test system: HCT-15 colon

Structure (SMILES)	GI50 (SF-295 CNS) [µM]	TGI (SF-295 CNS)	GI50 (RPMI-8226 leukemia) [µM]	TGI (RPMI-8226 leukemia)	GI50 (A498 renal) [µM]	TGI (A498 renal)	GI50 (UO-31 renal) [µM]	TGI (UO-31 renal)	GI50 (OVCAR-3 ovarian) [µM]	TGI (OVCAR-3 ovarian) [µM]	GI50 (HOP-92 NSCLC) [µM]	TGI (HOP-92 NSCLC)	GI50 (UACC-62 melanoma) [µM]	TGI (UACC-62 melanoma)	GI50 (SNB-19 CNS) [µM]	TGI (SNB-19 CNS)	GI50 (MDA-MB-231 breast) [µM]	TGI (MDA-MB-231 breast) [µM]	TGI (HCT-15 colon)	GI50 (HCT-15 colon) [µM]
CN1CCN(c2ccc3nc(-c4ccc(OCCCN5C(=O)c6cccc7cccc(c67)C5=O)cc4)[nH]c3c2)CC1	14.5	89.2 µM	2.58	7.75 µM	24.1	50.4 µM	14.5	43.1 µM	27.1	95.6	1.66	3.29 µM	5.18	10.1 µM	31	69.6 µM	1.41	2.76	–	–
Cc1c2cc[n+](C)cc2c(COC2OC(CO)C(O)C2O)c2c3ccccc3n(C)c12 (stereo not drawn)	–	> 100 µM	–	> 100 µM	–	> 100 µM	–	> 100 µM	–	> 100	–	> 100 µM	–	> 100 µM	–	> 95.7 µM	–	–	> 100 µM	–
NC(=O)c1cc2ccccc2c(N=Nc2ccccc2)c1O	–	> 100 µM	–	> 100 µM	–	> 100 µM	–	> 100 µM	–	> 100	–	> 100 µM	–	> 100 µM	–	> 100 µM	–	> 100	> 100 µM	–
CC(=O)OC1CC2(O)C(CCC3(C)C(c4ccc(=O)oc4)CCC32O)C2(C)CCC(O)C=C12 (stereo not drawn)	0.0375	0.0982 µM and 0.0635 µM	0.0375	0.134 µM and 0.0803 µM	–	0.31 µM and 0.176 µM	0.0667	0.131 µM and 0.095 µM	–	0.0229	0.0375	0.374 µM and 0.0869 µM	0.0375	0.0827 µM and 0.0478 µM	–	0.225 µM and 0.244 µM	–	–	0.209 µM and 0.147 µM	0.0375
CCC1=C(C)C2=NC1=CC1=NC(=C(CC)/C1=C/O)C=C1N=C3C(=C1C)C(=O)C(C(=O)OC)C3=C1NC(=C2)C(C)C1CCC(=O)OC (stereo not drawn)	–	> 100 µM	–	> 100 µM	–	> 100 µM	–	> 100 µM	–	> 100	–	> 100 µM	–	> 100 µM	–	> 100 µM	–	> 100	> 100 µM	–
COc1cccc2c1C(=O)c1c(O)c3c(c(O)c1C2=O)C[C@@](O)(C(C)=O)C[C@@H]3OC1CC(N)C(O)C(C)O1 (stereo partly drawn)	< 0.0147	–	0.0136	–	–	–	–	–	0.0664	–	< 0.0104	–	< 0.0166	–	< 0.0135	–	0.0534	–	8.07 µM [middle of 6 runs]	–
CC(=O)O[C@H]1C(=O)[C@]2(C)[C@@H](OC(=O)OCC(O)CO)C[C@H]3OC[C@@]3(OC(C)=O)[C@H]2[C@H](OC(=O)c2ccccc2)[C@]2(O)C[C@H](OC(=O)[C@H](O)[C@@H](NC(=O)c3ccccc3)c3ccccc3)C(C)=C1C2(C)C (stereo partly drawn)	–	–	–	< 0.01 µM	–	–	–	> 100 µM	–	< 0.01	–	> 85.3 µM	–	21.2 µM	–	> 100 µM	–	17.2	10.9 µM	–
CCP(=O)(CC)C(Cl)(Cl)C(=O)NC	–	> 100 µM	–	> 100 µM	–	–	–	> 100 µM	–	> 100	–	> 100 µM	–	–	–	> 100 µM	–	> 100	> 100 µM	–
O=c1c(-c2ccccc2)c[nH]c2cc([N+](=O)[O-])c(/C(Cl)=C/c3ccccc3)cc12	–	26.5 µM	–	9.98 µM	–	35.4 µM	–	36.8 µM	–	8.72	–	10.6 µM	–	22.6 µM	–	> 54.5 µM	–	–	> 47.1 µM	–
Cc1ccc(S(=O)(=O)OC2CN3CCC2CC3)cc1 (stereo not drawn)	–	> 100 µM	–	> 100 µM	–	> 100 µM	–	> 100 µM	–	> 100	–	> 100 µM	–	> 100 µM	–	> 100 µM	–	> 100	> 100 µM	–
CC(C)(C)CC(C)(C)Cc1ccc(OCCOCC[N+](C)(C)Cc2ccccc2)cc1	3.62	15.5 µM	–	–	2.08	9.38 µM	14.2	34.7 µM	1.34	3.09	1.23	2.56 µM	1.26	2.54 µM	–	–	1.51	3.08	33.5 µM	14.4
N#Cc1ccc(Nc2nc3nc[nH]c3c(=O)[nH]2)cc1	–	> 100 µM	–	> 100 µM	–	> 100 µM	–	> 100 µM	–	> 100	–	> 100 µM	–	> 100 µM	–	> 100 µM	–	> 100	> 100 µM	–
CCCCN(CCCC)CC(=O)c1ccc2cc(Cl)c3ccccc3c2c1	–	> 100 µM	–	> 100 µM	–	46.9 µM	–	50.4 µM	–	> 100	–	> 100 µM	–	> 100 µM	–	> 100 µM	–	> 100	53.3 µM	–
O=C(CCN1CCCC1)Nc1ccc2c(NCCCCc3ccccc3)c3ccccc3nc2c1	1.5	2.88 µM	0.258	0.837 µM	1.43	2.82 µM	1.55	2.92 µM	1.25	2.57	1.06	2.32 µM	1.67	3.12 µM	–	–	1.15	2.43	3.1 µM	1.62
CCOC(=O)c1c(NC(=S)NCc2ccccc2)sc2c1CCN(C)C2	–	> 100 µM	–	> 100 µM	–	> 100 µM	–	> 100 µM	–	> 100	–	–	–	> 100 µM	–	> 100 µM	–	> 100	> 100 µM	–
